Measured values published in patent publication US11034650B2, “Compounds useful for treating a Mannheimia haemolytica or Histophilus somni infection” (Intervet Inc., priority 2016, dated 2021).
Converted amounts (≈) assume the structure as drawn.

Legend:
Assay type in all cases: cell-based
[1] = system: Pasteurella multocida PM 10775 (080130003051, BRD field isolate); experiment: MIC, broth-microdilution (CLSI VET01-A4), strain PM 10775; details: Pasteurella multocida strain PM 10775, broth-microdilution; unit assumed
Protocol: (§1) For example, representative compounds were tested against ***, Mannheimia haemolytica and Pasteurella multocida, using the conventional broth-dilution assay.
(§2) The Minimum inhibitory concentrations (MIC) of compounds according to the invention for a number of veterinary bacterial pathogens were determined by the broth-microdilution method according to CLSI document VET01-A4.
(§3) Microdilution trays containing a doubling dilution series of the test compound were used for the tests. The MIC results were interpreted according to the CLSI documents VET01-S3. The lowest concentration of compound at which no visible growth (i.e. no turbidity) detected by the unaided eye was recorded as the MIC.

[2] = system: Pasteurella multocida PM 6267 (P 2225 (L386), reference strain, mouse infection strain); experiment: MIC, broth-microdilution (CLSI VET01-A4), strain PM 6267; details: Pasteurella multocida strain PM 6267, broth-microdilution; unit assumed
Protocol: as §1, §2, §3

[3] = system: Mannheimia haemolytica MH 6374 (ATCC 33396, reference strain); experiment: MIC, broth-microdilution (CLSI VET01-A4), strain MH 6374; details: Mannheimia haemolytica strain MH 6374, broth-microdilution; unit assumed
Protocol: as §1, §2, §3

[4] = system: Mannheimia haemolytica MH 13093 (XB0472-6014.1, BRD field isolate); experiment: MIC, broth-microdilution (CLSI VET01-A4), strain MH 13093; details: Mannheimia haemolytica strain MH 13093, broth-microdilution; unit assumed
Protocol: as §1, §2, §3

[5] = system: Mannheimia haemolytica MH 10720 (154, BRD field isolate); experiment: MIC, broth-microdilution (CLSI VET01-A4), strain MH 10720; details: Mannheimia haemolytica strain MH 10720, broth-microdilution; unit assumed
Protocol: as §1, §2, §3

[6] = system: Mannheimia haemolytica MH 13065 (XB0446-6003.9, BRD field isolate); experiment: MIC, broth-microdilution (CLSI VET01-A4), strain MH 13065; details: Mannheimia haemolytica strain MH 13065, broth-microdilution; unit assumed
Protocol: as §1, §2, §3

[7] = system: Mannheimia haemolytica MH 6357 (M7/2, reference strain, cattle infection strain); experiment: MIC, broth-microdilution (CLSI VET01-A4), strain MH 6357; details: Mannheimia haemolytica strain MH 6357, broth-microdilution; unit assumed
Protocol: as §1, §2, §3

[8] = system: Pasteurella multocida PM 12080 (IV102277-0093, BRD field isolate); experiment: MIC, broth-microdilution (CLSI VET01-A4), strain PM 12080; details: Pasteurella multocida strain PM 12080, broth-microdilution; unit assumed
Protocol: as §1, §2, §3

[9] = system: Mannheimia haemolytica MH 12587 (1071, BRD field isolate, macrolide-resistance: erm+, E+); experiment: MIC, broth-microdilution (CLSI VET01-A4), strain MH 12587; details: Mannheimia haemolytica strain MH 12587, broth-microdilution; unit assumed
Protocol: as §1, §2, §3

Row | Compound | MIC PM 10775 [1] [µg/mL] | MIC PM 6267 [2] [µg/mL] | MIC MH 6374 [3] [µg/mL] | MIC MH 13093 [4] [µg/mL] | MIC MH 10720 [5] [µg/mL] | MIC MH 13065 [6] [µg/mL] | MIC MH 6357 [7] [µg/mL] | MIC PM 12080 [8] [µg/mL] | MIC MH 12587 [9] [µg/mL]
1 | CC(C)[C@H](NC(=O)c1ccc(C#Cc2ccc(CN3CCc4ccccc4C3)cc2)cc1)C(=O)NO [Compound 102] | ≤ 0.1 | 0.4 (≈ 0.831 µM) | 3.1 (≈ 6.44 µM) | 6.3 (≈ 13.1 µM) | 0.8 (≈ 1.66 µM) | 3.1 (≈ 6.44 µM) | 3.1 (≈ 6.44 µM) | 0.8 (≈ 1.66 µM) | 12.5 (≈ 26 µM)
2 | CC[C@H](C)[C@H](NC(=O)c1ccc(C#Cc2ccc(CNCc3ccncc3)cc2)cc1)C(=O)NO [Compound 132] | ≤ 0.1 | ≤ 0.1 | 0.8 (≈ 1.7 µM) | 0.8 (≈ 1.7 µM) | 0.2 (≈ 0.425 µM) | 0.8 (≈ 1.7 µM) | 1.6 (≈ 3.4 µM) | 0.4 (≈ 0.85 µM) | 0.8 (≈ 1.7 µM)
3 | CC(C)[C@H](NC(=O)c1ccc(C#Cc2ccc(CNCc3ccccc3)cc2)cc1)C(=O)NO [Compound 104] | ≤ 0.1 | ≤ 0.1 | 0.4 (≈ 0.878 µM) | 0.8 (≈ 1.76 µM) | ≤ 0.1 | 0.4 (≈ 0.878 µM) | 0.4 (≈ 0.878 µM) | 0.4 (≈ 0.878 µM) | 1.6 (≈ 3.51 µM)
4 | CC(C)[C@H](NC(=O)c1ccc(C#Cc2ccc(CN3CCCOCC3)cc2)cc1)C(=O)NO [Compound 202] | ≤ 0.1 | ≤ 0.1 | 3.1 (≈ 6.9 µM) | 1.6 (≈ 3.56 µM) | 0.2 (≈ 0.445 µM) | 1.6 (≈ 3.56 µM) | 0.8 (≈ 1.78 µM) | ≤ 0.1 | 3.1 (≈ 6.9 µM)
5 | CN(Cc1ccccc1)Cc1ccc(C#Cc2ccc(C(=O)N[C@@H](CO)C(=O)NO)cc2)cc1 [Compound 86] | ≤ 0.1 | ≤ 0.1 | 0.8 (≈ 1.75 µM) | 3.1 (≈ 6.78 µM) | 0.4 (≈ 0.874 µM) | 1.6 (≈ 3.5 µM) | 1.6 (≈ 3.5 µM) | 0.8 (≈ 1.75 µM) | 3.1 (≈ 6.78 µM)
6 | O=C(N[C@@H](CO)C(=O)NO)c1ccc(C#Cc2ccc(CN3CCN(c4ccccc4)CC3)cc2)cc1 [Compound 81] | ≤ 0.1 | ≤ 0.1 | 3.1 (≈ 6.22 µM) | 6.3 (≈ 12.6 µM) | 0.8 (≈ 1.6 µM) | 3.1 (≈ 6.22 µM) | 3.1 (≈ 6.22 µM) | 0.8 (≈ 1.6 µM) | 25 (≈ 50.1 µM)
7 | C=CCNCc1cccc(C#Cc2ccc(C(=O)N[C@H](C(=O)NO)[C@@H](C)CC)cc2)c1 [Compound 49] | 0.8 (≈ 1.91 µM) | 3.1 (≈ 7.39 µM) | 12.5 (≈ 29.8 µM) | 12.5 (≈ 29.8 µM) | 6.3 (≈ 15 µM) | 12.5 (≈ 29.8 µM) | 12.5 (≈ 29.8 µM) | 12.5 (≈ 29.8 µM) | 25 (≈ 59.6 µM)
8 | CC[C@H](C)[C@H](NC(=O)c1ccc(C#Cc2ccc(CNCc3ccccc3)cc2)cc1)C(=O)NO [Compound 126] | ≤ 0.1 | 0.4 (≈ 0.852 µM) | 1.6 (≈ 3.41 µM) | 1.6 (≈ 3.41 µM) | 0.4 (≈ 0.852 µM) | 1.6 (≈ 3.41 µM) | 3.1 (≈ 6.6 µM) | 0.8 (≈ 1.7 µM) | 1.6 (≈ 3.41 µM)
9 | Cc1ccc(CNCc2ccc(C#Cc3ccc(C(=O)N[C@@H](CO)C(=O)NO)cc3)cc2)cc1C [Compound 91] | ≤ 0.1 | 0.4 (≈ 0.848 µM) | 3.1 (≈ 6.57 µM) | 12.5 (≈ 26.5 µM) | 1.6 (≈ 3.39 µM) | 6.3 (≈ 13.4 µM) | 6.3 (≈ 13.4 µM) | 1.6 (≈ 3.39 µM) | 12.5 (≈ 26.5 µM)
10 | COCCN(C)Cc1ccc(C#Cc2ccc(C(=O)N[C@H](C(=O)NO)C(C)C)cc2)cc1 [Compound 203] | ≤ 0.1 | ≤ 0.1 | 1.6 (≈ 3.66 µM) | 1.6 (≈ 3.66 µM) | 0.2 (≈ 0.457 µM) | 0.8 (≈ 1.83 µM) | 1.6 (≈ 3.66 µM) | ≤ 0.1 | 3.1 (≈ 7.09 µM)
11 | CC(C)[C@H](NC(=O)c1ccc(C#Cc2ccc(CN3CCC(c4ccccc4)CC3)cc2)cc1)C(=O)NO [Compound 100] | ≤ 0.1 | 0.4 (≈ 0.785 µM) | 6.3 (≈ 12.4 µM) | 6.3 (≈ 12.4 µM) | 0.8 (≈ 1.57 µM) | 3.1 (≈ 6.08 µM) | 3.1 (≈ 6.08 µM) | 0.8 (≈ 1.57 µM) | 12.5 (≈ 24.5 µM)
12 | CC[C@H](C)[C@H](NC(=O)c1ccc(C#Cc2ccc(CNCc3nccs3)cc2)cc1)C(=O)NO [Compound 188] | ≤ 0.1 | ≤ 0.1 | 1.6 (≈ 3.36 µM) | 0.8 (≈ 1.68 µM) | ≤ 0.1 | 0.8 (≈ 1.68 µM) | 0.8 (≈ 1.68 µM) | ≤ 0.1 | 3.1 (≈ 6.5 µM)
13 | CC[C@H](C)[C@H](NC(=O)c1ccc(C#Cc2ccc(CNCC(C)(C)C)cc2)cc1)C(=O)NO [Compound 114] | ≤ 0.1 | 0.2 (≈ 0.445 µM) | 12.5 (≈ 27.8 µM) | 6.3 (≈ 14 µM) | 1.6 (≈ 3.56 µM) | 6.3 (≈ 14 µM) | 6.3 (≈ 14 µM) | 0.8 (≈ 1.78 µM) | 12.5 (≈ 27.8 µM)
14 | CC[C@H](C)[C@H](NC(=O)c1ccc(C#Cc2ccc(CNCc3ccc(OC)cc3)cc2)cc1)C(=O)NO [Compound 129] | ≤ 0.1 | 0.8 (≈ 1.6 µM) | 1.6 (≈ 3.2 µM) | 3.1 (≈ 6.2 µM) | 0.4 (≈ 0.801 µM) | 1.6 (≈ 3.2 µM) | 1.6 (≈ 3.2 µM) | 1.6 (≈ 3.2 µM) | 3.1 (≈ 6.2 µM)
15 | CCN(CC)Cc1ccc(C#Cc2ccc(C(=O)N[C@@H](CO)C(=O)NO)cc2)cc1 [Compound 76] | 0.2 (≈ 0.488 µM) | 0.4 (≈ 0.977 µM) | 25 (≈ 61.1 µM) | 25 (≈ 61.1 µM) | 6.3 (≈ 15.4 µM) | 12.5 (≈ 30.5 µM) | 12.5 (≈ 30.5 µM) | 3.1 (≈ 7.57 µM) | 25 (≈ 61.1 µM)
16 | Cc1ccc(CNCc2ccc(C#Cc3ccc(C(=O)N[C@H](C(=O)NO)C(C)C)cc3)cc2)cc1C [Compound 111] | 0.4 (≈ 0.827 µM) | 0.8 (≈ 1.65 µM) | 3.1 (≈ 6.41 µM) | 3.1 (≈ 6.41 µM) | 0.8 (≈ 1.65 µM) | 3.1 (≈ 6.41 µM) | 3.1 (≈ 6.41 µM) | 1.6 (≈ 3.31 µM) | 12.5 (≈ 25.8 µM)
17 | CCN(CC)Cc1ccc(C#Cc2ccc(C(=O)N[C@H](C(=O)NO)C(C)C)cc2)cc1 [Compound 97] | ≤ 0.1 | 0.2 (≈ 0.474 µM) | 12.5 (≈ 29.7 µM) | 12.5 (≈ 29.7 µM) | 3.1 (≈ 7.35 µM) | 12.5 (≈ 29.7 µM) | 12.5 (≈ 29.7 µM) | 0.8 (≈ 1.9 µM) | 12.5 (≈ 29.7 µM)
18 | CC(C)NCc1ccc(C#Cc2ccc(C(=O)N[C@@H](CO)C(=O)NO)cc2)cc1 [Compound 72] | 0.8 (≈ 2.02 µM) | 1.6 (≈ 4.05 µM) | 12.5 (≈ 31.6 µM) | 12.5 (≈ 31.6 µM) | 6.3 (≈ 15.9 µM) | 12.5 (≈ 31.6 µM) | 12.5 (≈ 31.6 µM) | 12.5 (≈ 31.6 µM) | 25 (≈ 63.2 µM)
19 | O=C(N[C@@H](CO)C(=O)NO)c1ccc(C#Cc2ccc(CN3CCc4ccccc4C3)cc2)cc1 [Compound 83] | ≤ 0.1 | ≤ 0.1 | 0.8 (≈ 1.7 µM) | 1.6 (≈ 3.41 µM) | 0.4 (≈ 0.852 µM) | 0.8 (≈ 1.7 µM) | 25 (≈ 53.2 µM) | 0.8 (≈ 1.7 µM) | 1.6 (≈ 3.41 µM)
20 | O=C(N[C@@H](CO)C(=O)NO)c1ccc(C#Cc2ccc(CN3CCOCC3)cc2)cc1 [Compound 77] | ≤ 0.1 | ≤ 0.1 | 1.6 (≈ 3.78 µM) | 3.1 (≈ 7.32 µM) | 0.8 (≈ 1.89 µM) | 3.1 (≈ 7.32 µM) | 6.3 (≈ 14.9 µM) | 0.8 (≈ 1.89 µM) | 3.1 (≈ 7.32 µM)
21 | CC(C)[C@H](NC(=O)c1ccc(C#Cc2cccc(CNCC(C)(C)C)c2)cc1)C(=O)NO [Compound 27] | 0.8 (≈ 1.84 µM) | 3.1 (≈ 7.12 µM) | 12.5 (≈ 28.7 µM) | 25 (≈ 57.4 µM) | 3.1 (≈ 7.12 µM) | 25 (≈ 57.4 µM) | 12.5 (≈ 28.7 µM) | 6.3 (≈ 14.5 µM) | 25 (≈ 57.4 µM)
22 | CC[C@H](C)[C@H](NC(=O)c1ccc(C#Cc2ccc(CNCc3ccc(Cl)cc3)cc2)cc1)C(=O)NO [Compound 128] | 0.4 (≈ 0.794 µM) | 3.1 (≈ 6.15 µM) | 3.1 (≈ 6.15 µM) | 6.3 (≈ 12.5 µM) | 0.8 (≈ 1.59 µM) | 3.1 (≈ 6.15 µM) | 3.1 (≈ 6.15 µM) | 3.1 (≈ 6.15 µM) | 12.5 (≈ 24.8 µM)
23 | O=C(N[C@@H](CO)C(=O)NO)c1ccc(C#Cc2ccc(CN3CCC(c4ccccc4)CC3)cc2)cc1 [Compound 80] | ≤ 0.1 | ≤ 0.1 | 1.6 (≈ 3.22 µM) | 6.3 (≈ 12.7 µM) | 0.8 (≈ 1.61 µM) | 1.6 (≈ 3.22 µM) | 1.6 (≈ 3.22 µM) | 0.8 (≈ 1.61 µM) | 3.1 (≈ 6.23 µM)
